Five molecules from ChEMBL document CHEMBL5729772, “MYST family histone acetyltransferase inhibitors” (2023) can be followed below.

Assay [1] concerns the target Histone acetyltransferase KAT5 (Homo sapiens, UniProt Q92993). Nature of the assay: (§1) KAT-5 Enzyme Assay: Enzyme assay buffer was 50 mM Tris pH 8.0, 0.002% Tween20, 0.005% bovine skin gelatin, and 1 mM dithiothreitol (DTT). For determination of IC50values, compounds were serially diluted with 2% (v/v) DMSO in the final reaction, pre-incubating each dilution of each compound with 40 μL of assay buffer containing KAT-5 enzyme (9 nM final concentration). 10 μL of assay buffer containing 1 μM peptide substrate and 0.5 μM acetyl coenzyme A (final concentrations) was added. Reactions (50 μL total) were then carried out at 25° C. for 90 minutes. Reactions were terminated by the addition of 0.5% formic acid (final concentration), and a sample of each reaction was analyzed by SAMDI Tech, Inc. (Chicago, Ill.) using self-assembled monolayer desorption/ionization time-of-flight mass spectrometry (Mrksich, M. (2008) Mass spectrometry of self-assembled monolayers: a new tool for molecular surface science. ACS Nano 2, 7-18).

Assay [2] concerns the target Histone acetyltransferase KAT6A (Homo sapiens, UniProt Q92794). Described as §1, with “KAT-6A Enzyme” for “KAT-5 Enzyme”, “Assay: KAT-6A.” for “Assay:”, “containing KAT-6A” for “containing KAT-5”, “enzyme (12.5” for “enzyme (9”, “and 1” for “and 0.5”.
Assay [3] has as its target Histone acetyltransferase KAT7 (Homo sapiens, UniProt O95251). The description is as §1, with “KAT-7 Enzyme” for “KAT-5 Enzyme”, “containing KAT-7” for “containing KAT-5”, “enzyme (6” for “enzyme (9”, “and 2” for “and 0.5”, “for 120” for “for 90”.
The target in assay [4] is T1, Histone acetyltransferase KAT8 (Homo sapiens, UniProt Q9H7Z6).
T1 sequence (Q9H7Z6 whole entry): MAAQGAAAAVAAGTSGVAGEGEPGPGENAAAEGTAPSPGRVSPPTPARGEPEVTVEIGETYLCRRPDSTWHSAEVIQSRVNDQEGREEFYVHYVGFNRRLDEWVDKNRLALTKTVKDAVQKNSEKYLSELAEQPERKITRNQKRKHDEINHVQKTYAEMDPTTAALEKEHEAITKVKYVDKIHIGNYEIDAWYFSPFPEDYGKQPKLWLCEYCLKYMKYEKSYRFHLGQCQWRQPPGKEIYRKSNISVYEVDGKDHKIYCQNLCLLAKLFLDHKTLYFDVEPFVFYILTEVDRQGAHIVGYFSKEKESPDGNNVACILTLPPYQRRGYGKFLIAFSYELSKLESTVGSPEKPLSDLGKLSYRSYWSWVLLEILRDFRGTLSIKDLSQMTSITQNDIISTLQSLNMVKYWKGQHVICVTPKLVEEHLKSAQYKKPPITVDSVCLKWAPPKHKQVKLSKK
The description is as §1, with “KAT-8 Enzyme” for “KAT-5 Enzyme”, “containing KAT-8” for “containing KAT-5”, “enzyme (12.5” for “enzyme (9”, “and 5” for “and 0.5”.

One may read the IC50 as the concentration at which inhibition is half-maximal.

Histone acetyltransferase KAT6A, sequence (Q92794 whole entry): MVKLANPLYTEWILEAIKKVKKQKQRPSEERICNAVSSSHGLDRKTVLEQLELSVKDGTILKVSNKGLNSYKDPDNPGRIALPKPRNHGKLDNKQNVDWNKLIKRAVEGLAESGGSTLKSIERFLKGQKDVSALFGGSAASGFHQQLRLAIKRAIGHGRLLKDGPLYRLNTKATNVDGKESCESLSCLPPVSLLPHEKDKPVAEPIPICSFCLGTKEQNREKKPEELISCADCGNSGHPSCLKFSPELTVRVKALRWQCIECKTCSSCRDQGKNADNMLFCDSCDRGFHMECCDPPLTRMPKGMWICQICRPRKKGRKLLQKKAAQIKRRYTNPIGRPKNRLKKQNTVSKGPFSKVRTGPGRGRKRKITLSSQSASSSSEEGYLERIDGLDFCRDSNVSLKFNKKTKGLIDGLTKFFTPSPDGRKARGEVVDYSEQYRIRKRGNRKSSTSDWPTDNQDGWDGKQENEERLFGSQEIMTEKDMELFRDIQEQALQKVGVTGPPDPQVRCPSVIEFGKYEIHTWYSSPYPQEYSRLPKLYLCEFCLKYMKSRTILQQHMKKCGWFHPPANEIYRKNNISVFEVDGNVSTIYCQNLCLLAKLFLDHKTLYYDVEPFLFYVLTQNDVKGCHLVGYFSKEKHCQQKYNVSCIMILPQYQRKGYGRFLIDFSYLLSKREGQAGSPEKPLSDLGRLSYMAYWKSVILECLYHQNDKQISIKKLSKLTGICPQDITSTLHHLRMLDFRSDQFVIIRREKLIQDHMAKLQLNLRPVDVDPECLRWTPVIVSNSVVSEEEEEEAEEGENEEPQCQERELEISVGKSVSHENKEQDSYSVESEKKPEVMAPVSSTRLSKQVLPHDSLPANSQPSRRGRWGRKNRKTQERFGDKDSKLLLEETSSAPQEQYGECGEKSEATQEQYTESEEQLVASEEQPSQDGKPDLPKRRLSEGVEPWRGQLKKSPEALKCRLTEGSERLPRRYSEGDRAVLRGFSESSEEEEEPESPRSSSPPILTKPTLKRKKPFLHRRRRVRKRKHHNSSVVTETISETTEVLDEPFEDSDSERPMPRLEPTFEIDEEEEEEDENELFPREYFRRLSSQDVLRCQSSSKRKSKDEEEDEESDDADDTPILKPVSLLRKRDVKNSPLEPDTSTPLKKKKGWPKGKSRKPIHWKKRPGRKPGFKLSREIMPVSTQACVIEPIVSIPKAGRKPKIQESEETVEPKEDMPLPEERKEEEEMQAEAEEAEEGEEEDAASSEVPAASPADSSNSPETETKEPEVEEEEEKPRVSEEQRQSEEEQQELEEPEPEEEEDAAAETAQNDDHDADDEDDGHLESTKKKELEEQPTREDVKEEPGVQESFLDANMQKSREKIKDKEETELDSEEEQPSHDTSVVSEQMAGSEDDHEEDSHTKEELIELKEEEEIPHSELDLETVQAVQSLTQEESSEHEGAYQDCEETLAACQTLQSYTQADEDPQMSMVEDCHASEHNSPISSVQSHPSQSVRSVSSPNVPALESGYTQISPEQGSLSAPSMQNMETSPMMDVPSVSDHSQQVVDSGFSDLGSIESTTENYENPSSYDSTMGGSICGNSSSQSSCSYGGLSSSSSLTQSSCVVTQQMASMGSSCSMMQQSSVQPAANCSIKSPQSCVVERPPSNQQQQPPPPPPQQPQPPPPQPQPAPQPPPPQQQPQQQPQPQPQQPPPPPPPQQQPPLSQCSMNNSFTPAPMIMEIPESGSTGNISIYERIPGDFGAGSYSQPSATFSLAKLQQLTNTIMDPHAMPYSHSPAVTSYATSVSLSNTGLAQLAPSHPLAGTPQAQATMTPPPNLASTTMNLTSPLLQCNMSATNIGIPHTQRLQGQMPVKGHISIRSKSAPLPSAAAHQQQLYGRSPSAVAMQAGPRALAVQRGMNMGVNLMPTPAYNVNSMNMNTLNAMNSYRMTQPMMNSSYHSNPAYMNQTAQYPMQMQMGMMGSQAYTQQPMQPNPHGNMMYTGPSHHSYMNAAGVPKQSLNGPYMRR
Histone acetyltransferase KAT5, sequence (Q92993 whole entry): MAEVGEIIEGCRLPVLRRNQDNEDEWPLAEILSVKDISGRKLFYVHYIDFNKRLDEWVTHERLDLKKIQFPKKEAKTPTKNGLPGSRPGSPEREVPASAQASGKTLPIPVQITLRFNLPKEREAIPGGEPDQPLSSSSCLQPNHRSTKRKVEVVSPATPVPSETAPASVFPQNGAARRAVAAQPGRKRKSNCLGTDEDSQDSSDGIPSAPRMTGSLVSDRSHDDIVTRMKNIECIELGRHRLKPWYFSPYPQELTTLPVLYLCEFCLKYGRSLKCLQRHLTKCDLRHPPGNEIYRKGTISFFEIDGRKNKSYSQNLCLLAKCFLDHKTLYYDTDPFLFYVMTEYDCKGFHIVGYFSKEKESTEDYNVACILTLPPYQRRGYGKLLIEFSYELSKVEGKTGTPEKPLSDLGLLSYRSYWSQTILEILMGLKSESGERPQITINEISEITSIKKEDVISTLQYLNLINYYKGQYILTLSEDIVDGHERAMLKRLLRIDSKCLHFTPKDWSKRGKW
Histone acetyltransferase KAT7, sequence (O95251 whole entry): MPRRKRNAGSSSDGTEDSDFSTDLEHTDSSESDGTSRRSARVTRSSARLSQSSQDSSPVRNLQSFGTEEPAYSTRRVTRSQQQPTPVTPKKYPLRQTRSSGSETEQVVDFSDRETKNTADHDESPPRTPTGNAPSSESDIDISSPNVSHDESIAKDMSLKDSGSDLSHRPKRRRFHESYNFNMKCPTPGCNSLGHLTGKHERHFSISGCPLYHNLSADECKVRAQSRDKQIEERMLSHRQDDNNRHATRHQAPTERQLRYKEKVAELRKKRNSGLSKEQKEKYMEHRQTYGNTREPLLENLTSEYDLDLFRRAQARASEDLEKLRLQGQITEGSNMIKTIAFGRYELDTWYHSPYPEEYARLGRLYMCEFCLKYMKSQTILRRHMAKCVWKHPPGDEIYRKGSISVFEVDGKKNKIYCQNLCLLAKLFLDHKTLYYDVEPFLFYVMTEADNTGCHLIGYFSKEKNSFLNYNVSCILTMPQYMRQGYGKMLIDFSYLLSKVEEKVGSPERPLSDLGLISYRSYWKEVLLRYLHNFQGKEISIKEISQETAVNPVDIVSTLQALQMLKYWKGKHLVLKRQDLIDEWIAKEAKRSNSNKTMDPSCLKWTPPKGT

With `COc1ccc(S(=O)(=O)NNC(=O)c2cc(-c3cn(C)cn3)cc(Cl)c2F)nc1`, the IC50 in assay [1] is below 10 µM; in assay [2] it was below 10 µM; in assay [3], below 10 µM; in assay [4], “in the range around 30 µM”.
Turning to `COc1ccc(S(=O)(=O)NNC(=O)c2cc(-c3cn(C)cn3)cc(Cl)c2F)c(F)c1`, the IC50 is below 10 µM in assay [1], below 10 µM in assay [2], below 10 µM in assay [3] and “in the range around 30 µM” in assay [4].
In the case of `Cn1cnc(-c2cc(Cl)c(F)c(C(=O)NNS(=O)(=O)c3ccccc3F)c2)c1`, the concentration for half-maximal inhibition (IC50) in assay [1] is below 10 µM; in assay [2], below 10 µM; in assay [3] it was below 10 µM; in assay [4] it was “in the range around 30 µM”.
As for `COc1ccc(S(=O)(=O)NNC(=O)c2cc(-c3cn(C)cn3)cc(Cl)c2F)cc1`, the IC50 is below 10 µM in assay [1], below 10 µM in assay [2], below 10 µM in assay [3] and “in the range around 30 µM” in assay [4].
In the case of `CNc1cccc(S(=O)(=O)NNC(=O)c2cc(-c3cn(C)cn3)cc(Cl)c2F)c1`, the IC50 in assay [1] was below 10 µM; in assay [2], below 10 µM; in assay [3], below 10 µM; in assay [4] it was “in the range around 30 µM”.
